Assay results: patent US8962648B2, “Tricyclic compounds and PBK inhibitors containing the same” (OncoTherapy Science, Inc., priority 2010, dated 2015)
Structures can show the parent of a compound that is named as a salt. Where two headings read alike, the source gives them in different places.

Columns and labels:
HT-1197 cells = test: Cell-based assay, cellular growth (Cell Counting Kit-8, 72 hours), PBK-negative control cells
Method: (§1) 100 micro-L of cell suspension was seeded onto 96-well microtiter plate (ViewPlate-96FTC, PerkinElmer). […] Cellular growth was determined using Cell Counting Kit-8 (DOJINDO) at 72 hours after the exposure of the candidate inhibitors. […] Accurate IC50 values were calculated as described previously.

22Rv1 cells = test: Cell-based assay, cellular growth (Cell Counting Kit-8, 72 hours); conditions: Homo sapiens
T47D cells = test: as above
Method: as §1

BT-549 cells = test: as above; conditions: Homo sapiens, BT549 cells
Method: as §1

A549 cells = test: as above
Method: as §1

PBK = PBK (Homo sapiens (Human), UniProt Q96KB5); test: Kinase assay (IMAP fluorescence polarization, FITC-labeled histone H3 peptide); type: biochemical
Method: PBK activity was determined in the presence or absence of compounds using fluorescein isothiocyanate-labeled (FITC-labeled) histone H3 peptide as a substrate. […] The serially diluted compounds, 0.8 ng/micro-L PBK (Carna Biosciences) and 100 nM FITC-labeled histone H3 peptide were reacted in a reaction buffer (20 mM HEPES, 0.01% Tween-20, 0.3 mM MgCl2, 2 mM dithiothreitol, 50 micro-M ATP, pH 7.4) at room temperature for 1 hour. The reaction was stopped by the addition of three fold assay volume of progressive binding solution. […] IC50 values were calculated by nonlinear four parameter fit using SigmaPlot, version 10.0 (Systat Software, Inc.).

[1] = PBK 0.8 ng/micro-L, 50 micro-M ATP, 100 nM FITC-labeled histone H3 peptide, room temperature 1 hour

PBK, sequence (Q96KB5 whole entry): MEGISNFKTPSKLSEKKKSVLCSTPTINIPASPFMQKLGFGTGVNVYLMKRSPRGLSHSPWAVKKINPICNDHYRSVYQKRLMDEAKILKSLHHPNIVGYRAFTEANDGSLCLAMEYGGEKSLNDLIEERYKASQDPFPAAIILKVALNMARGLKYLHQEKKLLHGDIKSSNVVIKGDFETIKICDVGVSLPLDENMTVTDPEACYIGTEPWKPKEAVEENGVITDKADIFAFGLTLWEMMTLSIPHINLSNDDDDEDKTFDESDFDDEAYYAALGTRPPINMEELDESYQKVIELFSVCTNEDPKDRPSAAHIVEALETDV

Compound	IC50 (HT-1197 cells; Homo sapiens, HT1197, 72 h) [nM]	IC50 (22Rv1 cells) [nM]	IC50 (T47D cells; Homo sapiens, T47D, 72 h) [nM]	IC50 (BT-549 cells) [nM]	IC50 (A549 cells; Homo sapiens, A549, 72 h) [nM]	IC50 (PBK; [1]) [nM]	IC50 (HT-1197 cells; HT1197 cells (PBK-negative control), hydrobromide) [nM]	IC50 (T47D cells; hydrobromide) [nM]	IC50 (A549 cells; hydrobromide) [nM]	IC50 (PBK; PBK 0.8 ng/micro-L, 50 micro-M ATP, 100 nM FITC-labeled histone H3 peptide, room temperature 1 hour, hydrobromide) [nM]	IC50 (PBK) [nM]	IC50 (PBK; PBK 0.8 ng/micro-L, 50 micro-M ATP, 100 nM FITC-labeled histone H3 peptide, room temperature 1 hour, hydrochloride) [nM]
C[C@@H](CN)c1ccc(-c2c(O)ccc3[nH]c(=O)c4sccc4c23)cc1 [Compound 1160, (R)-9-(4-(1-aminopropan-2-yl)phenyl)-8-hydroxythieno[2,3-c]quinolin-4(5H)-one hydrochloride]	230	69	57	54	56	0.64	–	–	–	–	–	–
Cc1cc(O)c(-c2ccc([C@@H](C)CN)cc2)c2c1[nH]c(=O)c1sccc12 [Compound 1169, (R)-9-(4-(1-aminopropan-2-yl)phenyl)-8-hydroxy-6-methylthieno[2,3-c]quinolin-4(5H)-one hydrobromide]	–	22	24	13	23	–	–	–	–	–	–	–
CNC[C@H](C)c1ccc(-c2c(OC)cc(C)c3[nH]c(=O)c4sccc4c23)cc1 [Compound 1298, (R)-8-methoxy-6-methyl-9-(4-(1-(methylamino)propan-2-yl)phenyl)thieno[2,3-c]quinolin-4(5H)-one hydrochloride]	160	–	140	64	68	32	–	–	–	–	–	–
Cc1cc(O)c(-c2ccc(C3CCCNC3)cc2)c2c1[nH]c(=O)c1sccc12 (centres unmarked) [Compound 1302, 8-hydroxy-6-methyl-9-(4-(piperidin-3-yl)phenyl)thieno[2,3-c]quinolin-4(5H)-one hydrochloride]	1500	–	830	740	970	75	–	–	–	–	–	–
Cc1cc(O)c(-c2ccc([C@H](C)CN)c(F)c2)c2c1[nH]c(=O)c1sccc12 [Compound 1303, (S)-9-(4-(1-aminopropan-2-yl)-3-fluorophenyl)-8-hydroxy-6-methylthieno[2,3-c]quinolin-4(5H)-one]	510	–	130	81	92	14	–	–	–	–	–	–
COc1cc(C)c2[nH]c(=O)c3sccc3c2c1-c1ccc([C@@H](C)CN)cc1 [Compound 1305, (R)-9-(4-(1-aminopropan-2-yl)phenyl)-8-methoxy-6-methylthieno [2,3-c]quinolin-4(5H)-one hydrochloride]	64	–	40	21	20	15	–	–	–	–	–	–
CNC[C@H](C)c1ccc(-c2c(O)cc(C)c3[nH]c(=O)c4sccc4c23)cc1 [Compound 1307, (R)-8-hydroxy-6-methyl-9-(4-(1-(methylamino)propan-2-yl)phenyl)thieno [2,3-c]quinolin-4(5H)-one hydrobromide]	–	–	–	42	–	–	150	85	57	18	–	–
COc1cc(C)c2[nH]c(=O)c3sccc3c2c1-c1ccc([C@H](C)CN)c(F)c1 [Compound 1310, (S)-9-(4-(1-aminopropan-2-yl)-3-fluorophenyl)-8-methoxy-6-methylthieno[2,3-c]quinolin-4(5H)-one hydrochloride]	890	–	800	400	370	–	–	–	–	–	54	–
Cc1cc(O)c(-c2ccc([C@@H](C)CN(C)C)c(F)c2)c2c1[nH]c(=O)c1sccc12 [Compound 1311, (R)-9-(4-(1-(dimethylamino)propan-2-yl)-3-fluorophenyl)-8-hydroxy-6-methylthieno[2,3-c]quinolin-4(5H)-one hydrochloride]	110	–	70	37	45	–	–	–	–	–	17	–
CNC[C@H](C)c1ccc(-c2c(O)cc(C)c3[nH]c(=O)c4sccc4c23)cc1F [Compound 1315, (R)-9-(3-fluoro-4-(1-(methylamino)propan-2-yl)phenyl)-8-hydroxy-6-methylthieno[2,3-c]quinolin-4(5H)-one hydrochloride]	100	–	41	24	34	–	–	–	–	–	8.1	–
CNC[C@H](C)c1ccc(-c2c(OC)cc(C)c3[nH]c(=O)c4sccc4c23)cc1F [Compound 1316, (R)-9-(3-fluoro-4-(1-(methylamino)propan-2-yl)phenyl)-8-methoxy-6-methylthieno[2,3-c]quinolin-4(5H)-one hydrochloride]	230	–	160	83	86	–	–	–	–	–	33	–
COc1cc(C)c2[nH]c(=O)c3sccc3c2c1-c1ccc([C@@H](C)CN)c(F)c1 [Compound 1317, (R)-9-(4-(1-aminopropan-2-yl)-3-fluorophenyl)-8-methoxy-6-methylthieno[2,3-c]quinolin-4(5H)-one hydrochloride]	100	–	72	36	42	–	–	–	–	–	22	–
Cc1cc(O)c(-c2ccc([C@@H](C)CN)c(F)c2)c2c1[nH]c(=O)c1sccc12 [Compound 1318, (R)-9-(4-(1-aminopropan-2-yl)-3-fluorophenyl)-8-hydroxy-6-methylthieno[2,3-c]quinolin-4(5H)-one hydrochloride]	63	–	15	8.4	15	–	–	–	–	–	–	3.6
C[C@@H](CN(C)C)c1ccc(-c2c(O)cc(Cl)c3[nH]c(=O)c4sccc4c23)cc1 [Compound 1347, (R)-6-chloro-9-(4-(1-(dimethylamino)propan-2-yl)phenyl)-8-hydroxythieno [2,3-c]quinolin-4(5H)-one hydrochloride]	260	–	260	110	100	43	–	–	–	–	–	–
CC[C@@H](CN)c1ccc(-c2c(O)cc(C)c3[nH]c(=O)c4sccc4c23)cc1 [Compound 1352, (R)-9-(4-(1-aminobutan-2-yl)phenyl)-8-hydroxy-6-methylthieno[2,3-c]quinolin-4(5H)-one hydrochloride]	340	–	99	71	55	40	–	–	–	–	–	–
CNCCc1ccc(-c2c(O)cc(C)c3[nH]c(=O)c4sccc4c23)cc1 [Compound 1364, 8-hydroxy-6-methyl-9-(4-(2-(methylamino)ethyl)phenyl)thieno[2,3-c]quinolin-4(5H)-one hydrochloride]	660	–	300	260	270	55	–	–	–	–	–	–
